Experimental data from the supplement of paper PMC10307832.

Key:
Test in all cases: relative viability (nuclei count vs DMSO), 5 days (fraction); higher = more cells survive
BEN = test system: BEN
Method in brief: (§1)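 Relative viability is defined as nuclei in treated wells over nuclei in vehicle wells. Duplicate plates were run and medians reported. Lung cancer cell lines in 1536-well plates were dosed by pin tool one day after seeding, with one drug or with a fixed anchor-drug dose plus five library-drug doses (not always all listed) in √10 steps, and nuclei were counted after 5 days.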

EKVX = test system: EKVX
Method in brief: as §1

HARA = test system: HARA
Method in brief: as §1

HCC-366 = test system: HCC-366
Method in brief: as §1

HCC-827 = test system: HCC-827
Method in brief: as §1

LOU-NH91 = test system: LOU-NH91
Method in brief: as §1

NCI-H1355 = test system: NCI-H1355
Method in brief: as §1

NCI-H1395 = test system: NCI-H1395
Method in brief: as §1

NCI-H1437 = test system: NCI-H1437
Method in brief: as §1

NCI-H1734 = test system: NCI-H1734
Method in brief: as §1

NCI-H1792 = test system: NCI-H1792
Method in brief: as §1

NCI-H1993 = test system: NCI-H1993
Method in brief: as §1

NCI-H2009 = test system: NCI-H2009
Method in brief: as §1

NCI-H2087 = test system: NCI-H2087
Method in brief: as §1

NCI-H2405 = test system: NCI-H2405
Method in brief: as §1

NCI-H647 = test system: NCI-H647
Method in brief: as §1

NCI-H661 = test system: NCI-H661
Method in brief: as §1

SK-LU-1 = test system: SK-LU-1
Method in brief: as §1

SK-MES-1 = test system: SK-MES-1
Method in brief: as §1

Q: `CCN(CC)CCCCNc1ncc2cc(-c3cc(OC)cc(OC)c3)c(NC(=O)NC(C)(C)C)nc2n1` + C[C@]1(O)C[C@@H](c2nc(-c3ccc4ccc(-c5ccccc5)nc4c3)c3c(N)nccn32)C1 [Linsitinib] (partner 1 µM) was tested. Which relative viability (BEN; first compound 0.01 µM) did it give?
A: Its relative viability is 1.11.

Q: What about the relative viability (BEN; first compound 0.03162 µM) of the same compound?
A: The relative viability was 0.838.

Q: And the relative viability (BEN; first compound 0.1 µM)?
A: The relative viability was 0.894.

Q: And the relative viability (BEN; first compound 0.3162 µM)?
A: Its relative viability is 1.07.

Q: And the relative viability (BEN; first compound 1 µM)?
A: Its relative viability is 0.691.

Q: And the relative viability (EKVX; first compound 0.01 µM)?
A: Its relative viability is 1.11.

Q: And the relative viability (EKVX; first compound 0.03162 µM)?
A: Its relative viability is 1.1.

Q: What about the relative viability (EKVX; first compound 0.1 µM) of the same compound?
A: The relative viability was 0.93.

Q: And the relative viability (EKVX; first compound 0.3162 µM)?
A: Its relative viability is 1.09.

Q: And the relative viability (EKVX; first compound 1 µM)?
A: Its relative viability is 0.883.

Q: What about the relative viability (HARA; first compound 0.01 µM) of the same compound?
A: Its relative viability is 1.04.

Q: What about the relative viability (HARA; first compound 0.03162 µM) of the same compound?
A: The relative viability was 1.

Q: What about the relative viability (HARA; first compound 0.1 µM) of the same compound?
A: Its relative viability is 0.989.

Q: And the relative viability (HARA; first compound 0.3162 µM)?
A: The relative viability was 0.933.

Q: What about the relative viability (HARA; first compound 1 µM) of the same compound?
A: Its relative viability is 0.672.

Q: What about the relative viability (HCC-366; first compound 0.01 µM) of the same compound?
A: Its relative viability is 0.622.

Q: And the relative viability (HCC-366; first compound 0.03162 µM)?
A: Its relative viability is 0.706.

Q: And the relative viability (HCC-366; first compound 0.1 µM)?
A: The relative viability was 0.66.

Q: What about the relative viability (HCC-366; first compound 0.3162 µM) of the same compound?
A: The relative viability was 0.887.

Q: And the relative viability (HCC-366; first compound 1 µM)?
A: The relative viability was 0.505.

Q: What about the relative viability (HCC-827; first compound 0.01 µM) of the same compound?
A: Its relative viability is 0.933.

Q: What about the relative viability (HCC-827; first compound 0.03162 µM) of the same compound?
A: The relative viability was 0.987.

Q: What about the relative viability (HCC-827; first compound 0.1 µM) of the same compound?
A: Its relative viability is 1.01.

Q: And the relative viability (HCC-827; first compound 0.3162 µM)?
A: The relative viability was 0.982.

Q: And the relative viability (HCC-827; first compound 1 µM)?
A: Its relative viability is 0.961.

Q: And the relative viability (LOU-NH91; first compound 0.01 µM)?
A: The relative viability was 0.882.

Q: What about the relative viability (LOU-NH91; first compound 0.03162 µM) of the same compound?
A: The relative viability was 0.938.

Q: What about the relative viability (LOU-NH91; first compound 0.1 µM) of the same compound?
A: Its relative viability is 0.968.

Q: What about the relative viability (LOU-NH91; first compound 0.3162 µM) of the same compound?
A: The relative viability was 0.996.

Q: What about the relative viability (LOU-NH91; first compound 1 µM) of the same compound?
A: Its relative viability is 0.93.

Q: And the relative viability (NCI-H1355; first compound 0.01 µM)?
A: The relative viability was 0.861.

Q: What about the relative viability (NCI-H1355; first compound 0.03162 µM) of the same compound?
A: Its relative viability is 0.887.

Q: And the relative viability (NCI-H1355; first compound 0.1 µM)?
A: The relative viability was 0.873.

Q: What about the relative viability (NCI-H1355; first compound 0.3162 µM) of the same compound?
A: The relative viability was 0.898.

Q: What about the relative viability (NCI-H1355; first compound 1 µM) of the same compound?
A: Its relative viability is 0.794.

Q: And the relative viability (NCI-H1395; first compound 0.03162 µM)?
A: Its relative viability is 1.02.

Q: And the relative viability (NCI-H1395; first compound 0.1 µM)?
A: Its relative viability is 0.935.

Q: And the relative viability (NCI-H1395; first compound 0.3162 µM)?
A: Its relative viability is 1.04.

Q: And the relative viability (NCI-H1395; first compound 1 µM)?
A: The relative viability was 0.671.

Q: What about the relative viability (NCI-H1437; first compound 0.01 µM) of the same compound?
A: Its relative viability is 1.27.

Q: And the relative viability (NCI-H1437; first compound 0.03162 µM)?
A: The relative viability was 1.05.

Q: And the relative viability (NCI-H1437; first compound 0.1 µM)?
A: Its relative viability is 1.13.

Q: And the relative viability (NCI-H1437; first compound 0.3162 µM)?
A: The relative viability was 1.22.

Q: What about the relative viability (NCI-H1437; first compound 1 µM) of the same compound?
A: Its relative viability is 0.817.

Q: What about the relative viability (NCI-H1734; first compound 0.01 µM) of the same compound?
A: The relative viability was 0.864.

Q: And the relative viability (NCI-H1734; first compound 0.03162 µM)?
A: The relative viability was 0.923.

Q: And the relative viability (NCI-H1734; first compound 0.1 µM)?
A: The relative viability was 0.993.

Q: What about the relative viability (NCI-H1734; first compound 0.3162 µM) of the same compound?
A: Its relative viability is 0.913.

Q: What about the relative viability (NCI-H1734; first compound 1 µM) of the same compound?
A: The relative viability was 0.835.

Q: And the relative viability (NCI-H1792; first compound 0.01 µM)?
A: Its relative viability is 0.572.

Q: What about the relative viability (NCI-H1792; first compound 0.03162 µM) of the same compound?
A: Its relative viability is 0.501.

Q: And the relative viability (NCI-H1792; first compound 0.1 µM)?
A: Its relative viability is 0.475.

Q: What about the relative viability (NCI-H1792; first compound 0.3162 µM) of the same compound?
A: Its relative viability is 0.696.

Q: What about the relative viability (NCI-H1792; first compound 1 µM) of the same compound?
A: Its relative viability is 0.295.

Q: And the relative viability (NCI-H1993; first compound 0.01 µM)?
A: Its relative viability is 0.763.

Q: And the relative viability (NCI-H1993; first compound 0.03162 µM)?
A: Its relative viability is 0.807.

Q: What about the relative viability (NCI-H1993; first compound 0.1 µM) of the same compound?
A: Its relative viability is 0.831.

Q: And the relative viability (NCI-H1993; first compound 0.3162 µM)?
A: The relative viability was 0.751.

Q: And the relative viability (NCI-H1993; first compound 1 µM)?
A: Its relative viability is 0.731.

Q: And the relative viability (NCI-H2009; first compound 0.01 µM)?
A: The relative viability was 1.29.

Q: And the relative viability (NCI-H2009; first compound 0.03162 µM)?
A: The relative viability was 1.19.

Q: And the relative viability (NCI-H2009; first compound 0.1 µM)?
A: The relative viability was 1.23.

Q: And the relative viability (NCI-H2009; first compound 0.3162 µM)?
A: The relative viability was 1.26.

Q: What about the relative viability (NCI-H2009; first compound 1 µM) of the same compound?
A: Its relative viability is 1.21.

Q: What about the relative viability (NCI-H2087; first compound 0.01 µM) of the same compound?
A: The relative viability was 0.912.

Q: What about the relative viability (NCI-H2087; first compound 0.03162 µM) of the same compound?
A: The relative viability was 0.979.

Q: What about the relative viability (NCI-H2087; first compound 0.1 µM) of the same compound?
A: The relative viability was 1.21.

Q: What about the relative viability (NCI-H2087; first compound 0.3162 µM) of the same compound?
A: The relative viability was 1.02.

Q: And the relative viability (NCI-H2087; first compound 1 µM)?
A: Its relative viability is 0.883.

Q: And the relative viability (NCI-H2405; first compound 0.01 µM)?
A: The relative viability was 0.76.

Q: What about the relative viability (NCI-H2405; first compound 0.03162 µM) of the same compound?
A: The relative viability was 0.862.

Q: And the relative viability (NCI-H2405; first compound 0.1 µM)?
A: The relative viability was 0.863.

Q: What about the relative viability (NCI-H2405; first compound 0.3162 µM) of the same compound?
A: Its relative viability is 1.03.

Q: What about the relative viability (NCI-H2405; first compound 1 µM) of the same compound?
A: The relative viability was 0.817.

Q: And the relative viability (NCI-H647; first compound 0.01 µM)?
A: Its relative viability is 1.31.

Q: What about the relative viability (NCI-H647; first compound 0.03162 µM) of the same compound?
A: Its relative viability is 1.09.

Q: What about the relative viability (NCI-H647; first compound 0.1 µM) of the same compound?
A: The relative viability was 1.75.

Q: What about the relative viability (NCI-H647; first compound 0.3162 µM) of the same compound?
A: Its relative viability is 1.52.

Q: What about the relative viability (NCI-H647; first compound 1 µM) of the same compound?
A: Its relative viability is 1.

Q: What about the relative viability (NCI-H661; first compound 0.01 µM) of the same compound?
A: The relative viability was 0.568.

Q: What about the relative viability (NCI-H661; first compound 0.03162 µM) of the same compound?
A: Its relative viability is 0.45.

Q: What about the relative viability (NCI-H661; first compound 0.1 µM) of the same compound?
A: Its relative viability is 0.58.

Q: What about the relative viability (NCI-H661; first compound 0.3162 µM) of the same compound?
A: Its relative viability is 0.61.

Q: And the relative viability (NCI-H661; first compound 1 µM)?
A: The relative viability was 0.535.

Q: And the relative viability (SK-LU-1; first compound 0.01 µM)?
A: The relative viability was 1.24.

Q: And the relative viability (SK-LU-1; first compound 0.03162 µM)?
A: Its relative viability is 1.1.

Q: What about the relative viability (SK-LU-1; first compound 0.1 µM) of the same compound?
A: The relative viability was 1.4.

Q: And the relative viability (SK-LU-1; first compound 0.3162 µM)?
A: The relative viability was 1.49.

Q: What about the relative viability (SK-LU-1; first compound 1 µM) of the same compound?
A: The relative viability was 0.988.

Q: And the relative viability (SK-MES-1; first compound 0.01 µM)?
A: Its relative viability is 1.04.

Q: And the relative viability (SK-MES-1; first compound 0.03162 µM)?
A: Its relative viability is 1.26.

Q: What about the relative viability (SK-MES-1; first compound 0.1 µM) of the same compound?
A: Its relative viability is 1.16.

Q: And the relative viability (SK-MES-1; first compound 0.3162 µM)?
A: The relative viability was 1.16.

Q: What about the relative viability (SK-MES-1; first compound 1 µM) of the same compound?
A: The relative viability was 1.09.
